Experiments:
CDK13 = molecular target: T1, CDK13 (Homo sapiens, UniProt Q14004); experiment: CDK13 degradation in MDA-MB-231 cells by immunoblotting; assay type: cell-based;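 on Protein Degradation (%DMSO control, 0.3 μM) CDK13: percent of CDK13 protein degraded relative to DMSO control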
T1 construct: Immunoblotting of CDK12 and CDK13 in MDA-MB-231 cells treated with increasing concentrations of ZLC491 for 15 h; endogenous in cells; host or cells: MDA-MB-231
How it was run: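 MDA-MB-231 cells treated with ZLC491 at increasing concentrations for 15 h (screening at 0.3 μM; time course at 1 μM); SDS lysates immunoblotted, band intensities normalised to α-tubulin. DC50 taken from percent remaining protein versus concentration; representative of three independent experiments.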

ARG2 = experiment: TMT-labeled quantitative proteomics in MDA-MB-231 cells; assay type: cell-based, Homo sapiens; settings: 2 μM ZLC491 vs DMSO, 8 h
Protocol: (§1) Figure 5 ZLC491 degraded CDK12/13 with high selectivity. (A) Global proteomic analysis of ZLC491 in MDA-MB-231 cells after 8 h treatment of DMSO or 2 μM ZLC491; (B) mass-spec quantification of CDKs changes; (C) immunoblotting of target protein degradation in samples for proteomic analysis.
(§2) MDA-MB-231 cells were seeded at 8 × 10^5 cells in 6 cm dishes 24 h before treating with 2 μM ZLC491 or DMSO in quadruplicate or triplicate for 8 h. Cell lysates were prepared by washing cells twice with cold PBS and adding 180 μL lysis buffer (10 mM HEPES, pH 7.0, 1% (w/v) SDS, 2 mM MgCl·6H2O supplemented with 0.1% BeyoZonase (Beyotime)) per dish. Samples were quantified using a micro-BCA protein assay kit (Thermo Fisher Scientific) and 600 μg of each sample was processed and digested using the filter aided sample preparation (FASP) method followed by alkylation with iodoacetamide and digestion with trypsin. The samples were then desalted using Oasis HLB C18 SPE cartridge column (Waters, WAT094225). The peptides were lyophilized and reconstituted, then 25 μg peptides of each sample were labeled with TMT 11-plex Isobaric Label Reagent Set (Thermo Fisher Scientific) as the manufacturer’s instructions. After labeling, the peptides from the 11 samples were pooled together. The pooled TMT 11-plex sample was fractionated using high pH reverse-phase chromatography on an XBridge peptide BEH column (130 Å, 3.5 μm, 2.1 × 150 mm, Waters) on an Ultimate 3000 HPLC system (Thermo Scientific/Dionex). […]
(§3) The fractions were analyzed sequentially on an Orbitrap Fusion Lumos Mass Spectrometer (Thermo Scientific) coupled to a NanoLC-1200 UHPLC system (Thermo Scientific) with C18 capillary column. […] MS3 precursor were fragmented by HCD and analyzed with Orbitrap at NCE 65, AGC 1E5, resolution 60000.
(§4) The raw MS data files for all 11 fractions were searched against the Uniprot-Human-Canonical database by Proteome Discoverer 2.0 for protein identification and TMT reporter ion quantitation. […]

B3GAT3 = experiment: as above; assay type: cell-based, Homo sapiens; settings: 2 μM ZLC491 vs DMSO, 8 h
Protocol: as §1, §2, §3, §4

NME2 = experiment: as above; assay type: cell-based, Homo sapiens; settings: 2 μM ZLC491 vs DMSO, 8 h
Protocol: as §1, §2, §3, §4

T1 sequence (Q14004 whole entry): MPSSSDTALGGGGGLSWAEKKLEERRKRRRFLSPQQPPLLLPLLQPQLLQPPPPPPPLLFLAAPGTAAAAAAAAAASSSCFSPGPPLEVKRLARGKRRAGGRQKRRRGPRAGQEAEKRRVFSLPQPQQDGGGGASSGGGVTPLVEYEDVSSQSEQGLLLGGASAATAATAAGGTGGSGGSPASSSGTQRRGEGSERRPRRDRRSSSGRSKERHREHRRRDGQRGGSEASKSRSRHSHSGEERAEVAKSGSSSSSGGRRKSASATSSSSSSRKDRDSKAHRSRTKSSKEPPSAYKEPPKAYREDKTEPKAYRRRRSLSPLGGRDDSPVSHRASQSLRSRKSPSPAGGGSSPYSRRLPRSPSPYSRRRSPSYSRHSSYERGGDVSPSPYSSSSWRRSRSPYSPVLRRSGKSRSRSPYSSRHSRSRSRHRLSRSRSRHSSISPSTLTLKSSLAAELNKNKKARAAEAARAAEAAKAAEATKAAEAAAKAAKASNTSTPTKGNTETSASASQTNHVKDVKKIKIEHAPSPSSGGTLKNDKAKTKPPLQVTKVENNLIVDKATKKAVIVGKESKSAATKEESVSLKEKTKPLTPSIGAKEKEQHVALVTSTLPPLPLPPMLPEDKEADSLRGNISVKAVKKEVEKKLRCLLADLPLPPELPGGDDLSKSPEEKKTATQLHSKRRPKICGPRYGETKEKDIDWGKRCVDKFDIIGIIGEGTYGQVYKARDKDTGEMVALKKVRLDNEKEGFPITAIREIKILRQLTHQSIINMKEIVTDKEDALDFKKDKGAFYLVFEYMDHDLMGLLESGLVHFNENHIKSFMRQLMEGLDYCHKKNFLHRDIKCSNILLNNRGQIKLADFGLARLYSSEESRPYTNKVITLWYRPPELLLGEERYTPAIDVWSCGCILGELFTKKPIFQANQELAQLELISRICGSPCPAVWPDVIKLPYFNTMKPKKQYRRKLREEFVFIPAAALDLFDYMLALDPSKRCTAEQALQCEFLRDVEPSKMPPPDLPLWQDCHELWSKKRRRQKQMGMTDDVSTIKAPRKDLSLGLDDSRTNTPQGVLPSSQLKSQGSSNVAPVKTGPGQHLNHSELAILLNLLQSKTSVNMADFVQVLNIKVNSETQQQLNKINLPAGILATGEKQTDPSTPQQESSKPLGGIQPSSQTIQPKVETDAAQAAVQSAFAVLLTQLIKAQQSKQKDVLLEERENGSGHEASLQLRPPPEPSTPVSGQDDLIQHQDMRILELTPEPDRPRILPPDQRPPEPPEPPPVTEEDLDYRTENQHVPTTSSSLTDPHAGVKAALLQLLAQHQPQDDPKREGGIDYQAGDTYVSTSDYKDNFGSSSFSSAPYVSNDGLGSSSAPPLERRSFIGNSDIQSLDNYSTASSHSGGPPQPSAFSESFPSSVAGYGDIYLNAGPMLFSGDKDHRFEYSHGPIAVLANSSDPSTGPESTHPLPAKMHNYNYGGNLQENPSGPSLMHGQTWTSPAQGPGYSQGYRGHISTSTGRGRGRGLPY
T1 sequence (O75909 whole entry partner): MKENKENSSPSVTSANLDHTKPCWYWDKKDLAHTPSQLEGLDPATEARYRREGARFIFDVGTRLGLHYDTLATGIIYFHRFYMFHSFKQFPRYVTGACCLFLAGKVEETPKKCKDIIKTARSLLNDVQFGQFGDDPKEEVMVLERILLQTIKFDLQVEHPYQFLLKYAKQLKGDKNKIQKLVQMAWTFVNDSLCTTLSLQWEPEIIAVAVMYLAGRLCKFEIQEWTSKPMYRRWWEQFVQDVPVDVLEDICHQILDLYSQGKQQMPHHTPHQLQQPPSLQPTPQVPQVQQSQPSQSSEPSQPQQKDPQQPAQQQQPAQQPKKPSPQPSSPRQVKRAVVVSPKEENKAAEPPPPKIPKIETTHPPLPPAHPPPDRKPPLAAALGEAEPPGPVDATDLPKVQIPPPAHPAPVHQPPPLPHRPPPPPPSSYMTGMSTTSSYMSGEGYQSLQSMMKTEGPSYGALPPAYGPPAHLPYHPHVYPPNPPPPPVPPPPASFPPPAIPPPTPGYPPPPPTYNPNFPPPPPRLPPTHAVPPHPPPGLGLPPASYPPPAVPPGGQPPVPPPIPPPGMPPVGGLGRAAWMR

In the case of `N#Cc1ccc(N[C@H]2CC[C@H](N(C(=O)NCc3ccccc3)c3ccc(N4CCN(C5CCN(c6cc7c(cc6F)C(=O)N(C6CCC(=O)NC6=O)C7=O)CC5)CC4)cc3)CC2)nc1` (stereo partly shown) [ZLC491, 3-Benzyl-1-((1r,4r)-4-((5-cyanopyridin-2-yl)amino)cyclohexyl)-1-(4-(4-(1-(2-(2,6-dioxopiperidin-3-yl)-6-fluoro-1,3-dioxoisoindolin-5-yl)piperidin-4-yl)piperazin-1-yl)phenyl)urea], the “CDK13 degradation, immunoblotting of the proteomic samples” value (CDK13; 2 μM, 8 h, MDA-MB-231) is reported as “significantly degraded”, the “Protein Degradation (%DMSO control, 0.3 μM) CDK13” value (CDK13; MDA-MB-231 cells, 0.3 μM, 15 h, immunoblotting, normalized against α-tubulin) is reported as 90% and the DC50 (CDK13; MDA-MB-231 cells, 15 h) is reported as 28 nM. For the same compound, the Degradation rates of CDK13 at 0.3 μM (CDK13; supplementary CSV, 0.3 μM) was 90%, the “FC_4-91 (ARG2)” value (ARG2) was 1.14 and the “FC_4-91 (B3GAT3)” value (B3GAT3) was 1.982. For the same compound, the “FC_4-91 (NME2)” value (NME2) was 1.1277.

Source: PMC11513923, “Discovery of ZLC491 as a Potent, Selective, and Orally Bioavailable CDK12/13 PROTAC Degrader” (Journal of Medicinal Chemistry, 2024)
